For experiment [1], the target named is T1, 11β-HSD1 in primary human aortic smooth muscle cells (AoSMC) (Homo sapiens, UniProt P28845).
T1 construct: containing 12 ng/mL hTNFα to induce expression of 11β-HSD1; endogenous in cells; host or cells: primary human aortic smooth muscle cells (AoSMC), induced with hTNFα
Description: Human Aortic Smooth Muscle Cell Assay (cortisone to cortisol conversion). In kind it is cell-based. The note with it: AoSMC induced with hTNFα; cortisol measured after 16 hours with cortisone. On the procedure: Human Aortic Smooth Muscle Cell Assay
Primary human aortic smooth muscle cells (AoSMC) are cultured in 5% FBS growth medium to a passage number of 6, then pelleted by centrifugation and resuspended at a density of 9×10^4 cells/mL in 0.5% FBS assay medium containing 12 ng/mL hTNFα to induce expression of 11β-HSD1. Cells are seeded into 96-well tissue culture assay plates at 100 μL/well (9×10^3 cells/well) and incubated for 48 hours at 37° C., 5% CO2. Following induction, cells are incubated for 4 hours at 37° C., 5% CO2 in assay medium containing test compounds then treated with 10 μL/well of 10 μM cortisone solubilized in assay medium, and incubated for 16 hours at 37° C., 5% CO2. Medium from each well is transferred to a plate for subsequent analysis of cortisol using a competitive fluorescence resonance time resolved immunoassay. […] Higher levels of free cortisol result in diminishing energy transfer from the Europium-IgG to the APC-cortisol complex resulting in less APC fluorescence. Fluorescent intensities for Europium and APC are measured using a LJL Analyst AD. Europium and APC […] is measured using 360 nm excitation and 615 nm and 650 nm emission filters respectively. […] Fluorescent intensities measured for APC are modified by dividing by the Eu fluorescence (APC/Eu). […]

Experiment [2] addresses recombinant human 11β-HSD type 1 enzyme (Homo sapiens, UniProt P28845). Description: 11β-HSD Type 1 Enzyme Assay (NADPH fluorescence). In kind it is biochemical. The note with it: three hour incubation at room temperature, read-out: Human 11-βHSD1 IC50. On the procedure:
11β-HSD Type 1 Enzyme Assay
Human 11β-HSD type 1 activity is measured by assaying NADPH production by fluorescence assay. Solid compounds are dissolved in DMSO to a concentration of 10 mM. Twenty microliters of each are then transferred to a column of a 96-well polypropylene Nunc plate where they are further diluted 50-fold followed by subsequent two-fold titration, ten times across the plate with additional DMSO using a Tecan Genesis 200 automated system. Plates are then transferred to a Tecan Freedom 200 system with an attached Tecan Temo 96-well head and an Ultra 384 plate reader. Reagents are supplied in 96-well polypropylene Nunc plates and are dispensed individually into black 96-well Molecular Devices High Efficiency assay plates (40 μL/well capacity) in the following fashion: 9 μL/well of substrate (2.22 mM NADP, 55.5 μM Cortisol, 10 mM Tris, 0.25% Prionex, 0.1% Triton X100), 3 μL/well of water to compound wells or 3 μL to control and standard wells, 6 μL/well recombinant human 11β-HSD type 1 enzyme, 2 μL/well of compound dilutions. For ultimate calculation of percent inhibition, a series of wells are added that represent assay minimum and maximum: one set containing substrate with 667 μM carbenoxolone (background), and another set containing substrate and enzyme without compound (maximum signal). Final DMSO concentration is 0.5% for all compounds, controls and standards. Plates are then placed on a shaker by the robotic arm of the Tecan for 15 seconds before being covered and stacked for a three hour incubation period at room temperature. Upon completion of this incubation, the Tecan robotic arm removes each plate individually from the stacker and places them in position for addition of 5 μL/well of a 250 μM carbenoxolone solution to stop the enzymatic reaction. Plates are then shaken once more for 15 seconds then placed into an Ultra 384 microplate reader (355EX/460EM) for detection of NADPH fluorescence.

Experiment [3] has as its system cortisone conversion to cortisol (11β-HSD1). The experiment is described as follows: Acute In Vivo Cortisone Conversion Assay. On the set-up: species or system male C57BL/6 mice. The note with it: mice, oral dose 10 mg/kg, cortisone challenge s.c. 30 mg/kg, 16 hours post compound dose, serum cortisol. On the procedure:
Acute In Vivo Cortisone Conversion Assay
In general, compounds are dosed orally into mice, the mice are challenged with a subcutaneous injection of cortisone at a set timepoint after compound injection, and the blood of each animal is collected some time later. Separated serum is then isolated and analyzed for levels of cortisone and cortisol by LC-MS/MS, followed by calculation of mean cortisol and percent inhibition of each dosing group. Specifically, male C57BL/6 mice are obtained from Harlan Sprague Dawley at average weight of 25 grams. Exact weights are taken upon arrival and the mice randomized into groups of similar weights. Compounds are prepared in 1% w-w HEC, 0.25% w-w polysorbate 80, 0.05% w-w Dow Corning antifoam #1510-US at various doses based on assumed average weight of 25 grams. Compounds are dosed orally, 200 μl per animal, followed by a subcutaneous dose, 200 μl per animal, of 30 mg/kg cortisone at 1 to 24 hours post compound dose. At 10 minutes post cortisone challenge, each animal is euthanized for 1 minute in a CO2 chamber, followed by blood collection via cardiac puncture into serum separator tubes. Once fully clotted, tubes are spun at 2500×g, 4° C. for 15 minutes, the serum transferred to wells of 96-well plates (Corning Inc, Costar #4410, cluster tubes, 1.2 ml, polypropylene), and the plates are frozen at −20° C. until analysis by LC-MS/MS. […]

One may read the IC50 as the concentration needed to halve the response being measured.

Each structure is given as a SMILES string.

Chain of recombinant human 11β-HSD type 1 enzyme (P28845 whole entry): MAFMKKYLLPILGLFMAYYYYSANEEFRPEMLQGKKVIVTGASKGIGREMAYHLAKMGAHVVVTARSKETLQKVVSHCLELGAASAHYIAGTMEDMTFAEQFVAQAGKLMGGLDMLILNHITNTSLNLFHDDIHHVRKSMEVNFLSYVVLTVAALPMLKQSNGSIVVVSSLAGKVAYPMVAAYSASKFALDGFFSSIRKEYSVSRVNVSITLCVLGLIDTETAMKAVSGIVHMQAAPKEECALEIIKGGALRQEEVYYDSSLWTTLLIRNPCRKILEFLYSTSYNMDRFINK
T1 sequence (P28845 whole entry): as above

Take `O=C(c1ccc(-c2cc(Cl)c(C[C@@H]3CCN(C4CCC(F)(F)CC4)C3=O)c(Cl)c2)cc1)N1CCC(C(F)(F)F)CC1` [Example 3, (R)-3-[3,5-Dichloro-4′-(4-trifluoromethyl-piperidine-1-carbonyl)-biphenyl-4-ylmethyl]-1-(4,4-difluoro-cyclohexyl)-pyrrolidin-2-one]: the IC50 in experiment [1] is 55.1 nM; in experiment [2] it was 686 nM. In experiment [3], the “% Inhibition after 16 hours (dose of 10 (mg/kg))” value was 60.7%.
For `O=C(c1ccc(-c2cc(Cl)c(C[C@@H]3CCN(C4CCC(F)(F)CC4)C3=O)c(Cl)c2)cc1)N1CCS(=O)(=O)CC1` [Example 4, (R)-3-[3,5-Dichloro-4′-(1,1-dioxo-1lamda*6*-thiomorpholine-4-carbonyl)-biphenyl-4-ylmethyl]-1-(4,4-difluoro-cyclohexyl)-pyrrolidin-2-one], the IC50 in experiment [2] amounted to 382 nM. For the same molecule, the “% Inhibition after 16 hours (dose of 10 (mg/kg))” value in experiment [3] was 50.2%.
In the case of `O=C(c1ccc(-c2cc(Cl)c(C[C@@H]3CCN([C@H]4CC[C@@H](F)CC4)C3=O)c(Cl)c2)cc1)N1CCC(C(F)(F)F)CC1` [Example 9, (R)-3-[3,5-Dichloro-4′-(4-trifluoromethyl-piperidine-1-carbonyl)-biphenyl-4-ylmethyl]-cis-1-(4-fluoro-cyclohexyl)-pyrrolidin-2-one], the results for the IC50 in experiment [1] and in experiment [2] were 5.5 nM and 584 nM, respectively.
